In article PMC10584170, “Machine learning-based phenotypic imaging to characterise the targetable biology of Plasmodium falciparum male gametocytes for the development of transmission-blocking antimalarials” (PLOS Pathogens, 2023):

Key:
[1] = test system: P. falciparum male gametocytes; assay: P. falciparum Dual Gamete Formation Assay (PfDGFA), male readout (exflagellation); type: cell-based, Plasmodium falciparum NF54; conditions: for Average inhibition male (%): average of replicates; for % inhibition male (individual replicates) R1: replicate R1; for % inhibition male (individual replicates) R3: replicate R3; for % inhibition male (individual replicates) R4: replicate R4; for Activity: hit = >50% inhibition in male or female readout in at least 3 replicates, 0 = no class assigned
Summary of the method: (§1)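 First, day-14 P. falciparum NF54 gametocytes receive compound for 24 h at 37°C in 1% O2/3% CO2. Next, ookinete medium with Cy3 anti-Pfs25 triggers gametogenesis at 28°C and male exflagellation is imaged. Finally, after 24 h in the dark, Cy3-labelled females are imaged.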

[2] = test system: P. falciparum female gametocytes; assay: P. falciparum Dual Gamete Formation Assay (PfDGFA), female readout (Pfs25-positive female gametes); type: cell-based, Plasmodium falciparum NF54; conditions: for Average inhibition female (%): average of replicates; for % inhibition female (individual replicates) R1: replicate R1; for % inhibition female (individual replicates) R3: replicate R3; for % inhibition female (individual replicates) R4: replicate R4
Summary of the method: as §1

[3] = 2µM, 24h preincubation with gametocytes prior to induction of gametogenesis
[4] = 2µM, 24h preincubation, hits selected on >50% inhibition in the male readout across replicates
[5] = PfDGFA at 2µM, 24h preincubation
[6] = 2µM, 24h preincubation, hits selected on >50% inhibition in the female readout across replicates
[7] = PfDGFA at 2µM, 24h preincubation with gametocytes
[8] = PfDGFA at 2µM, 24h preincubation with gametocytes prior to induction of gametogenesis
[9] = 2µM, 24h preincubation, number of replicates with >50% inhibition in the male readout
[10] = 2µM, 24h preincubation, number of replicates with >50% inhibition in the female readout
[11] = 2µM, 24h preincubation with gametocytes

For c1cc(Cc2ccc(Nc3c4ccccc4nc4ccccc34)cc2)cc(Nc2c3ccccc3nc3ccccc23)c1 [TCMDC-137793], the “Average inhibition male (%)” value [1, 3] was 2.5%, the “% inhibition male (individual replicates) R1” value [1, 3] was 17.2% and the “% inhibition male (individual replicates) R3” value [1, 3] was -11.5%. The “% inhibition male (individual replicates) R4” value [1, 3] was -9.8%, the HitlevelM [1, 4] was 0 and the Activity [1, 5] was 0. The “Average inhibition female (%)” value [2, 3] was 14.4%, the “% inhibition female (individual replicates) R1” value [2, 3] was 13.9% and the “% inhibition female (individual replicates) R3” value [2, 3] was 7.5%. The “% inhibition female (individual replicates) R4” value [2, 3] was 13.1% and the HitlevelF [2, 6] was 0.
In the case of COc1cc2ccccc2c(CNCCCCCCNCc2c(OC)c(OC)cc3ccccc23)c1OC.CS(=O)(=O)O [TCMDC-137795], the “Average inhibition male (%)” value [1, 7] is reported as 66.8%, the “% inhibition male (individual replicates) R1” value [1, 7] is reported as 59.0% and the “% inhibition male (individual replicates) R3” value [1, 7] is reported as 36.7%. For the same compound, the “% inhibition male (individual replicates) R4” value [1, 7] was 86.9%, the HitlevelM ([1]; number of replicates with >50% inhibition in the male readout, 2µM) was 3 and the “Average inhibition female (%)” value [2, 7] was 31.5%. For the same compound, the “% inhibition female (individual replicates) R1” value [2, 7] was 34.0%, the “% inhibition female (individual replicates) R3” value [2, 7] was 23.0% and the “% inhibition female (individual replicates) R4” value [2, 7] was 18.6%. The HitlevelF ([2]; number of replicates with >50% inhibition in the female readout, 2µM) was 1.
In the case of Br.c1cc(C2=NC3CCCCC3N2)ccc1OCCCCCOc1ccc(C2=NC3CCCCC3N2)cc1 (stereo not shown) [TCMDC-137802], the “% inhibition male (individual replicates) R1” value [1, 8] is reported as 3.7%, the “% inhibition male (individual replicates) R3” value [1, 8] is reported as 3.4% and the “% inhibition male (individual replicates) R4” value [1, 8] is reported as -3.8%. The “Average inhibition male (%)” value [1, 5] was -1.7%, the “% inhibition female (individual replicates) R1” value [2, 8] was 13.0% and the “% inhibition female (individual replicates) R3” value [2, 8] was -14.3%. For the same compound, the “% inhibition female (individual replicates) R4” value [2, 8] was -0.44% and the “Average inhibition female (%)” value [2, 5] was 3.6%.
With Nc1nc(N)c2c(ccc3c2ccn3Cc2cccc(F)c2)n1 [TCMDC-137810] the “Average inhibition male (%)” value [1, 3] was 57.9%, the “% inhibition male (individual replicates) R1” value [1, 3] was 71.9% and the “% inhibition male (individual replicates) R3” value [1, 3] was 59.3%. For the same compound, the “% inhibition male (individual replicates) R4” value [1, 3] was 64.6%, the HitlevelM [1, 9] was 3 and the “Average inhibition female (%)” value [2, 3] was 73.3%. The “% inhibition female (individual replicates) R1” value [2, 3] was 69.9%, the “% inhibition female (individual replicates) R3” value [2, 3] was 85.4% and the “% inhibition female (individual replicates) R4” value [2, 3] was 66.6%. It also gave a HitlevelF [2, 10] of 4.
For COc1cccc(Cn2ccc3c4c(N)nc(N)nc4ccc32)c1 [TCMDC-137811], the “Average inhibition male (%)” value [1, 3] was 42.3%, the “% inhibition male (individual replicates) R1” value [1, 3] was 37.2% and the “% inhibition male (individual replicates) R3” value [1, 3] was 47.4%. The “% inhibition male (individual replicates) R4” value [1, 3] was 43.4%, the HitlevelM [1, 9] was 0 and the “Average inhibition female (%)” value [2, 3] was 75.4%. The “% inhibition female (individual replicates) R1” value [2, 3] was 72.3%, the “% inhibition female (individual replicates) R3” value [2, 3] was 74.8% and the “% inhibition female (individual replicates) R4” value [2, 3] was 79.8%. The HitlevelF [2, 10] was 4.
For CS(=O)(=O)O.FC(F)(F)COc1ccc2ccccc2c1CNCCCCCCNCc1c(OCC(F)(F)F)ccc2ccccc12 [TCMDC-137816], the “Average inhibition male (%)” value [1, 11] was 91.3%, the “% inhibition male (individual replicates) R1” value [1, 11] was 97.0% and the “% inhibition male (individual replicates) R3” value [1, 11] was 82.6%. The “% inhibition male (individual replicates) R4” value [1, 11] was 90.9%, the “Average inhibition female (%)” value [2, 11] was 42.8% and the “% inhibition female (individual replicates) R1” value [2, 11] was 37.4%. The “% inhibition female (individual replicates) R3” value [2, 11] was 26.9% and the “% inhibition female (individual replicates) R4” value [2, 11] was 39.6%.
In the case of N#Cc1ccc(Cn2ccc3c4c(N)nc(N)nc4ccc32)cc1 [TCMDC-137820], the “Average inhibition male (%)” value [1, 3] is reported as 57.5%, the “% inhibition male (individual replicates) R1” value [1, 3] is reported as 46.1% and the “% inhibition male (individual replicates) R3” value [1, 3] is reported as 51.2%. For the same compound, the “% inhibition male (individual replicates) R4” value [1, 3] was 67.4%, the HitlevelM [1, 9] was 3 and the “Average inhibition female (%)” value [2, 3] was 75.9%. The “% inhibition female (individual replicates) R1” value [2, 3] was 77.9%, the “% inhibition female (individual replicates) R3” value [2, 3] was 77.4% and the “% inhibition female (individual replicates) R4” value [2, 3] was 70.8%. The HitlevelF [2, 10] was 4.
COc1cc(CNCCCCCCNCc2cc(OC)cc3ccccc23)c2ccccc2c1.CS(=O)(=O)O [TCMDC-137823] was tested, and the “Average inhibition male (%)” value [1, 3] was 27.1%, the “% inhibition male (individual replicates) R1” value [1, 3] was 24.9% and the “% inhibition male (individual replicates) R3” value [1, 3] was 12.3%. The “% inhibition male (individual replicates) R4” value [1, 3] was 38.9%, the HitlevelM [1, 4] was 0 and the Activity [1, 5] was 0. For the same compound, the “Average inhibition female (%)” value [2, 3] was 15.2%, the “% inhibition female (individual replicates) R1” value [2, 3] was 16.9% and the “% inhibition female (individual replicates) R3” value [2, 3] was 3.5%. The “% inhibition female (individual replicates) R4” value [2, 3] was 20.5% and the HitlevelF [2, 6] was 0.
With CCCCOc1cc(CNCCCCCCNCc2cc(OCCCC)cc3ccccc23)c2ccccc2c1.CS(=O)(=O)O [TCMDC-137824] the “Average inhibition male (%)” value [1, 3] was 32.5%, the “% inhibition male (individual replicates) R1” value [1, 3] was 29.7% and the “% inhibition male (individual replicates) R3” value [1, 3] was -0.8%. For the same compound, the “% inhibition male (individual replicates) R4” value [1, 3] was 46.2%, the HitlevelM [1, 9] was 1 and the “Average inhibition female (%)” value [2, 3] was 23.5%. For the same compound, the “% inhibition female (individual replicates) R1” value [2, 3] was 22.5%, the “% inhibition female (individual replicates) R3” value [2, 3] was 5.4% and the “% inhibition female (individual replicates) R4” value [2, 3] was 30.9%. The HitlevelF [2, 10] was 0.
